Reference: paper PMC3880597 (Journal of medicinal chemistry, 2013)

Legend:
[1] = Pharmacokinetics and brain distribution after single sc dose to mice; type: in vivo
[2] = Metabolic stability in male rat liver S9; type: in vitro ADME
[3] = molecular target: MMP-9cat (catalytic domain of human recombinant MMP-9) (Homo sapiens, UniProt P14780); test: MMP inhibition kinetics, MMP-9cat; type: biochemical; conditions: slow-binding; Ki calculated from koff/kon
[4] = female, C57Bl/6J, mouse, in vivo, 25 mg/kg
[5] = female, C57Bl/6J, mouse, in vivo, sc, 25 mg/kg

Chain of MMP-9cat (catalytic domain of human recombinant MMP-9) (P14780 107-444 limits assumed): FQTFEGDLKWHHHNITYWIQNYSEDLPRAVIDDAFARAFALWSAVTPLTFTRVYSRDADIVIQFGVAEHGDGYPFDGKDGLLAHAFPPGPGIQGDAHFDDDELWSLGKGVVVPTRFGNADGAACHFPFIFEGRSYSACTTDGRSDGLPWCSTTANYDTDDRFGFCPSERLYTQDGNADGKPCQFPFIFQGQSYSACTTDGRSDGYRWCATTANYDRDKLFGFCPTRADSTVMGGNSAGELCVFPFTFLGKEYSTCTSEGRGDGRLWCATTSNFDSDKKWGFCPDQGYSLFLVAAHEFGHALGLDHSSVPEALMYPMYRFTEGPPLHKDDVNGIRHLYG

Q: Which “level of 5b in plasma or brain” value ([1]; after 25 mg/kg sc dose of 5b, all time points) does the source give for `CCNC(=O)Oc1ccc(Oc2ccc(S(=O)(=O)CC3CS3)cc2)cc1` (stereo not drawn) [Compound 5b, 4-(4-((Thiiran-2-ylmethyl)sulfonyl)phenoxy)phenyl ethylcarbamate] here?
A: not quantifiable

Q: For `CCOC(=O)Oc1ccc(Oc2ccc(S(=O)(=O)CC3CS3)cc2)cc1` (stereo not drawn) [Compound 4b, Ethyl (4-(4-((thiiran-2-ylmethyl)sulfonyl)phenoxy)phenyl) carbonate], which “time to complete hydrolysis to compound 2” value [2] is on record?
A: ≤ 5 min

Q: And the “Ki (inhibition constant) against MMP-9cat” value [3]?
A: comparable inhibition constants against MMP-9cat as ND-322

Q: With `CCOC(=O)Nc1ccc(Oc2ccc(S(=O)(=O)CC3CS3)cc2)cc1` (stereo not drawn) [Compound 7b, Ethyl (4-(4-((thiiran-2-ylmethyl)sulfonyl)phenoxy)phenyl)carbamate] as the molecule, how does the “Ki (inhibition constant) against MMP-9cat” value [3] read?
A: comparable inhibition constants against MMP-9cat as ND-322

Q: Which “time of maximal brain level of 2” value ([1]; after 25 mg/kg sc dose of 5b) does the source give for `O=S(=O)(CC1CS1)c1ccc(Oc2ccc(O)cc2)cc1` (stereo not drawn) [Compound 2] here?
A: 20 min

Q: And the “maximal brain level of 2, molar equivalent” value ([1]; after 25 mg/kg sc dose of 5b, at 20 min, assuming a density of 1.0 g/mL)?
A: 1.35 ± 1.10 µM

Q: And the “brain level of 2 at 4 h” value ([1]; after 25 mg/kg sc dose of 5b, mice)?
A: 0.255 ± 0.0154 pmol/mg

Q: What about the “maximal plasma concentration of 2” value ([1]; after 25 mg/kg sc dose of 5b, mice, at 10 min) of the same molecule?
A: 1.24 ± 0.676 µM

Q: What about the “maximal brain level of 2” value ([1]; after 25 mg/kg sc dose of 5b, mice, at 20 min) of the same molecule?
A: 1.35 ± 1.10 pmol/mg tissue

Q: And the “t½α, plasma” value ([1]; compound 2 after 25 mg/kg sc dose of 5b, mice)?
A: 0.688 h

Q: And the Kp [1, 4]?
A: 1.64

Q: And the concentration at 4 h [1, 4]?
A: 114 ± 14.7 nM

Q: And the AUC(0-inf) [1, 5]?
A: 1.17 µM·h

Q: And the AUC(0-t) [1, 5]?
A: 0.9 µM·h

Q: And the Tmax [1, 5]?
A: 0.167 h

Q: And the half-life ([1]; female, C57Bl/6J, mouse, in vivo, sc, 25 mg/kg, t½β, brain)?
A: 8.88 h

Q: And the half-life ([1]; female, C57Bl/6J, mouse, in vivo, sc, 25 mg/kg, t½β, plasma)?
A: 7.7 h

Q: And the half-life ([1]; female, C57Bl/6J, mouse, in vivo, sc, terminal half-life in brain)?
A: 8.9 h

Q: And the half-life ([1]; female, C57Bl/6J, mouse, in vivo, sc, terminal half-life in plasma)?
A: 7.7 h

Q: What about the “AUC0-last, brain” value ([1]; mouse, in vivo, sc, 25 mg/kg) of the same molecule?
A: 88.8 pmol·min/mg

Q: And the “AUC0-∞, brain” value ([1]; mouse, in vivo, sc, 25 mg/kg)?
A: 129 pmol·min/mg

Q: What does the source list for `CCNC(=O)Nc1ccc(Oc2ccc(S(=O)(=O)CC3CS3)cc2)cc1` (stereo not drawn) [Compound 6b, 1-Ethyl-3-(4-(4-((thiiran-2-ylmethyl)sulfonyl)phenoxy)phenyl)urea]?
A: elimination half-life in brain relative to plasma ([1]; 6b after 25 mg/kg sc dose of 6b): 3.3 fold; hydrolysis of 6b to give compound 3 in plasma and brain ([1]; after 25 mg/kg sc dose of 6b): not observed; time of maximal brain level of 6b ([1]; after 25 mg/kg sc dose of 6b): 10 min
